# Data reported in PubChem BioAssay (NCI).
#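 1) Cells in 96-well plates. 2) Compound, 48 h, 5 concentrations. 3) Linear interpolation between surrounding doses. 4) Unreached endpoint = highest concentration. GI50 marks 50% less growth. TGI: total growth inhibition.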
# How the values were obtained:
# Test in all cases: DTP human tumour cell line panel, 48 h
# [1] = tested on: SF-295 CNS
# [2] = tested on: SR leukemia
# [3] = tested on: NCI-H226 lung
# [4] = tested on: M14 melanoma
# [5] = tested on: DU-145 prostate
# [6] = tested on: SW-620 colon
# [7] = tested on: 786-0 renal
# [8] = tested on: UACC-257 melanoma
# [9] = tested on: MCF7 breast
# [10] = tested on: HCC-2998 colon
# [11] = tested on: SK-MEL-5 melanoma
# [12] = tested on: UO-31 renal
# [13] = tested on: CAKI-1 renal
# [14] = tested on: EKVX NSCLC
# [15] = tested on: SN12C renal
# [16] = tested on: TK-10 renal
# [17] = tested on: HS 578T breast
# [18] = tested on: OVCAR-4 ovarian
# [19] = tested on: HOP-62 NSCLC
# [20] = tested on: HOP-92 NSCLC
# [21] = tested on: ACHN renal
# [22] = tested on: SNB-19 CNS
# [23] = tested on: K-562 leukemia
# [24] = tested on: SF-268 CNS
# [25] = tested on: CCRF-CEM leukemia
# [26] = tested on: SK-MEL-28 melanoma
# [27] = tested on: U251 CNS
# [28] = tested on: OVCAR-3 ovarian
# [29] = tested on: HT29 colon
# [30] = tested on: PC-3 prostate
# [31] = tested on: HL-60(TB) leukemia
# [32] = tested on: MDA-MB-435
# [33] = tested on: BT-549 breast
# [34] = tested on: COLO 205 colon
# [35] = tested on: NCI-H460 lung
# [36] = tested on: SK-OV-3 ovarian
# [37] = tested on: MALME-3M melanoma
# [38] = tested on: HCT-116 colon
# [39] = tested on: NCI-H522 lung
# [40] = tested on: A498 renal
# [41] = tested on: RPMI-8226 leukemia
# [42] = tested on: HCT-15 colon
# [43] = tested on: IGROV1 ovarian
# [44] = tested on: KM12 colon
# [45] = tested on: MDA-MB-231 breast
# [46] = tested on: NCI-H23 lung
# [47] = tested on: LOX IMVI melanoma
# [48] = tested on: UACC-62 melanoma
# [49] = tested on: MOLT-4 leukemia
# [50] = tested on: SF-539 CNS
# [51] = tested on: SNB-75 CNS
# [52] = tested on: RXF 393 renal
# [53] = tested on: A549 NSCLC
# [54] = tested on: OVCAR-5 ovarian
# [55] = tested on: OVCAR-8 ovarian
# [56] = tested on: SK-MEL-2 melanoma
smiles,measurement,setting,value
C[n+]1c2ccccc2c(Nc2ccc(N3CCCCC3)cc2)c2[nH]c3ccccc3c21,GI50,[1],379 nM
same,TGI,[1],1550 nM
same,GI50,[2],3.79 µM
same,TGI,[2],> 100 µM
same,GI50,[3],324 nM
same,TGI,[3],1800 nM
same,GI50,[4],346 nM
same,TGI,[4],1470 nM
same,GI50,[5],272 nM
same,TGI,[5],802 nM
same,GI50,[6],184 nM
same,TGI,[6],726 nM
same,GI50,[7],456 nM
same,TGI,[7],1.69 µM
same,GI50,[8],417 nM
same,TGI,[8],1070 nM
same,GI50,[9],152 nM
same,TGI,[9],524 nM
same,GI50,[10],185 nM
same,TGI,[10],619 nM
same,GI50,[11],333 nM
same,TGI,[11],1460 nM
same,GI50,[12],144 nM
same,TGI,[12],0.833 µM
same,GI50,[13],114 nM
same,TGI,[13],1.06 µM
same,GI50,[14],459 nM
same,TGI,[14],1930 nM
same,GI50,[15],212 nM
same,TGI,[15],1240 nM
same,GI50,[16],1230 nM
same,TGI,[16],2.6 µM
same,GI50,[17],231 nM
same,TGI,[17],0.705 µM
same,GI50,[18],326 nM
same,TGI,[18],1230 nM
same,GI50,[19],456 nM
same,TGI,[19],1810 nM
same,GI50,[20],264 nM
same,TGI,[20],1200 nM
same,GI50,[21],223 nM
same,TGI,[21],1010 nM
same,GI50,[22],427 nM
same,TGI,[22],1760 nM
same,GI50,[23],0.155 µM
same,TGI,[23],353 nM
same,GI50,[24],460 nM
same,TGI,[24],1620 nM
same,GI50,[25],83.2 nM
same,TGI,[25],312 nM
same,GI50,[26],418 nM
same,TGI,[26],1360 nM
same,GI50,[27],205 nM
same,TGI,[27],670 nM
same,GI50,[28],185 nM
same,TGI,[28],368 nM
same,GI50,[29],191 nM
same,TGI,[29],656 nM
same,GI50,[30],154 nM
same,TGI,[30],416 nM
same,GI50,[31],28.2 nM
same,TGI,[31],192 nM
same,GI50,[32],442 nM
same,TGI,[32],1650 nM
same,GI50,[33],1160 nM
same,TGI,[33],2450 nM
same,GI50,[34],140 nM
same,TGI,[34],344 nM
same,GI50,[35],152 nM
same,TGI,[35],480 nM
same,GI50,[36],515 nM
same,TGI,[36],1850 nM
same,GI50,[37],340 nM
same,TGI,[37],1530 nM
same,GI50,[38],132 nM
same,TGI,[38],361 nM
same,TGI,[39],90.8 nM
same,GI50,[40],234 nM
same,TGI,[40],843 nM
same,GI50,[41],81 nM
same,TGI,[41],262 nM
same,GI50,[42],154 nM
same,TGI,[42],324 nM
same,GI50,[43],229 nM
same,TGI,[43],1180 nM
same,GI50,[44],281 nM
same,TGI,[44],958 nM
same,GI50,[45],327 nM
same,TGI,[45],1.7 µM
same,GI50,[46],349 nM
same,TGI,[46],1680 nM
same,GI50,[47],144 nM
same,TGI,[47],340 nM
same,GI50,[48],194 nM
same,TGI,[48],861 nM
same,GI50,[49],53.6 nM
same,TGI,[49],1180 nM
same,GI50,[50],617 nM
same,TGI,[50],1900 nM
same,GI50,[51],522 nM
same,TGI,[51],1910 nM
same,GI50,[52],174 nM
same,TGI,[52],347 nM
same,GI50,[53],166 nM
same,TGI,[53],549 nM
same,GI50,[54],658 nM
same,TGI,[54],2090 nM
Cc1nc2cc(Nc3nc(N4CCCCC4)nc(N4CCOCC4)n3)ccc2n1Cc1ccccc1,GI50,[2],3.57 µM
same,TGI,[2],> 100 µM
same,GI50,[3],4060 nM
same,TGI,[3],> 100000 nM
same,GI50,[4],3920 nM
same,TGI,[4],> 100000 nM
same,GI50,[5],3480 nM
same,TGI,[5],> 100000 nM
same,GI50,[6],3190 nM
same,TGI,[6],> 100000 nM
same,GI50,[7],1780 nM
same,TGI,[7],3.23 µM
same,GI50,[8],3150 nM
same,TGI,[8],> 100000 nM
same,GI50,[9],3280 nM
same,TGI,[9],> 100000 nM
same,GI50,[10],3980 nM
same,TGI,[10],> 100000 nM
same,GI50,[17],2710 nM
same,TGI,[17],> 100 µM
same,GI50,[23],6.71 µM
same,TGI,[23],> 100000 nM
same,GI50,[31],2160 nM
same,TGI,[31],5490 nM
same,GI50,[32],3410 nM
same,TGI,[32],> 100000 nM
same,GI50,[33],2510 nM
same,TGI,[33],7100 nM
same,GI50,[42],2840 nM
same,TGI,[42],> 100000 nM
same,GI50,[43],3760 nM
same,TGI,[43],> 100000 nM
same,GI50,[49],3600 nM
same,TGI,[49],> 100000 nM
same,GI50,[50],> 100000 nM
same,TGI,[50],> 100000 nM
O=C(CCCCN1CCOCC1)Nc1ccc(Cn2nnc3c2C(=O)c2nnn(Cc4ccc(NC(=O)CCCCN5CCOCC5)cc4)c2C3=O)cc1,GI50,[1],381 nM
same,TGI,[1],1050 nM
same,GI50,[2],0.406 µM
same,TGI,[2],2.65 µM
same,GI50,[3],723 nM
same,TGI,[3],1840 nM
same,GI50,[4],264 nM
same,TGI,[4],903 nM
same,GI50,[5],459 nM
same,TGI,[5],1050 nM
same,GI50,[6],201 nM
same,TGI,[6],800 nM
same,GI50,[7],1070 nM
same,TGI,[7],3.38 µM
same,GI50,[8],141 nM
same,TGI,[8],399 nM
same,GI50,[9],84.9 nM
same,TGI,[9],195 nM
same,GI50,[10],181 nM
same,TGI,[10],594 nM
same,GI50,[11],71.7 nM
same,TGI,[11],141 nM
same,GI50,[12],1240 nM
same,TGI,[12],17.5 µM
same,GI50,[13],1430 nM
same,TGI,[13],28.2 µM
same,GI50,[14],776 nM
same,TGI,[14],1520 nM
same,GI50,[15],94.6 nM
same,TGI,[15],203 nM
same,GI50,[16],2020 nM
same,TGI,[16],39.6 µM
same,GI50,[17],1090 nM
same,TGI,[17],13.8 µM
same,GI50,[18],177 nM
same,TGI,[18],769 nM
same,GI50,[19],745 nM
same,TGI,[19],1490 nM
same,GI50,[20],808 nM
same,TGI,[20],1760 nM
same,GI50,[21],758 nM
same,TGI,[21],1810 nM
same,GI50,[22],187 nM
same,TGI,[22],566 nM
same,GI50,[24],400 nM
same,TGI,[24],1600 nM
same,GI50,[25],271 nM
same,TGI,[25],2700 nM
same,GI50,[26],260 nM
same,TGI,[26],642 nM
same,GI50,[27],329 nM
same,TGI,[27],879 nM
same,GI50,[28],167 nM
same,TGI,[28],559 nM
same,GI50,[29],178 nM
same,TGI,[29],837 nM
same,GI50,[30],404 nM
same,TGI,[30],2570 nM
same,GI50,[31],157 nM
same,TGI,[31],687 nM
same,GI50,[32],94.8 nM
same,TGI,[32],170 nM
same,GI50,[33],722 nM
same,TGI,[33],1410 nM
same,GI50,[34],95.9 nM
same,TGI,[34],186 nM
same,GI50,[35],112 nM
same,TGI,[35],530 nM
same,GI50,[36],930 nM
same,TGI,[36],1830 nM
same,GI50,[37],72 nM
same,TGI,[37],163 nM
same,GI50,[55],257 nM
same,TGI,[55],1140 nM
same,GI50,[38],160 nM
same,TGI,[38],584 nM
same,GI50,[39],113 nM
same,TGI,[39],362 nM
same,GI50,[40],906 nM
same,TGI,[40],1820 nM
same,GI50,[41],596 nM
same,TGI,[41],2030 nM
same,GI50,[42],629 nM
same,TGI,[42],1550 nM
same,GI50,[43],669 nM
same,TGI,[43],1460 nM
same,GI50,[44],574 nM
same,TGI,[44],1720 nM
same,GI50,[45],199 nM
same,TGI,[45],50 µM
same,GI50,[56],351 nM
same,TGI,[56],1220 nM
same,GI50,[46],154 nM
same,TGI,[46],522 nM
same,GI50,[47],115 nM
same,TGI,[47],305 nM
same,GI50,[48],116 nM
same,TGI,[48],341 nM
same,GI50,[49],183 nM
same,TGI,[49],788 nM
same,GI50,[50],132 nM
same,TGI,[50],355 nM
same,GI50,[51],234 nM
same,TGI,[51],806 nM
same,GI50,[52],717 nM
same,TGI,[52],1810 nM
same,GI50,[53],397 nM
same,TGI,[53],1110 nM
same,GI50,[54],107 nM
same,TGI,[54],244 nM
